Consider one substance from US11492385B2, “Long-acting co-agonists of the glucagon and GLP-1 receptors” (Merck Sharp & Dohme Corp., priority 2015, dated 2022).

Data set [1] can be described thus: Duration of action in DIO mice: body weight after a single sc dose. The class given is in vivo. On the procedure:
(§1) In this example, the duration of action of several of the peptides or co-agonist peptides was evaluated in diet-induced obese (DIO) mice. The duration of action of the peptides were compared to the duration of action of Semaglutide (sema) and Liraglutide (lira). The peptides tested were SEQ ID NOs: 2, 19, 28, 29, and 33 (Seq 2, Seq 19, Seq 28, Seq 29, and Seq 33, respectively).

Data set [2] can be described thus: Duration of action in DIO mice: food intake after a single sc dose. The class given is in vivo. On the procedure: as §1
The nature of data set [3]: Duration of action in DIO mice: blood glucose after a single sc dose. Type of data set: in vivo. The conditions noted are these: single sc dose at day zero, compared to liraglutide and semaglutide (FIG. 1C). The protocol:
as §1

The conditions of data set [4]: mouse, in vivo, sc.
Protocol: DIO mice were divided into groups of eight mice per group and the initial average body weight, food intake and basal glucose of each group were matched. Each group of mice was subcutaneously (sc) injected with a single dose of peptide or vehicle control. The administered doses varied between 3 and 300 nmol/kg. […] A separate set of mice were treated with same dose of each peptide. Serial blood was taken at 5 hours, 24 hours, 48 hours and 72 hours post sc injection to measure drug exposure.

Starred links: 1 amine or outer side, 2 acyl side, 3 side chain; linkers in the order of their positions; H or OH if unused. Non-standard residues stand in square brackets, D forms with d. Groups on a side chain read outwards from the residue. No end group written: not given here. *: point of attachment. C16 diacid = O=C(O)CCCCCCCCCCCCCCC(=O)*; γGlu = O=C(O)[C@H](CCC(=O)[*:2])N[*:1]; Met(O2) = CS(=O)(=O)CC[C@H](N)C(=O)O; AEEA = NCCOCCOCC(=O)O; Aib = CC(C)(N)C(=O)O

“HXQGTFTSDYSKYLDARAAK( ? -γE-C16—OH)DFVQWL2DT—NH2 (H[Aib]QGTFTSDYSKYLDARAAK([AEEA-AEEA-γGlu-C16 diacid])DFVQWL[Met(O2)]DT-NH2; N-terminus assumed; SMILES CC(C)C[C@H](NC(=O)[C@H](Cc1ccc(O)cc1)NC(=O)[C@H](CCCCN)NC(=O)[C@H](CO)NC(=O)[C@H](Cc1ccc(O)cc1)NC(=O)[C@H](CC(=O)O)NC(=O)[C@H](CO)NC(=O)[C@@H](NC(=O)[C@H](Cc1ccccc1)NC(=O)[C@@H](NC(=O)CNC(=O)[C@H](CCC(N)=O)NC(=O)C(C)(C)NC(=O)[C@@H](N)Cc1c[nH]cn1)[C@@H](C)O)[C@@H](C)O)C(=O)N[C@@H](CC(=O)O)C(=O)N[C@@H](C)C(=O)N[C@@H](CCCNC(=N)N)C(=O)N[C@@H](C)C(=O)N[C@@H](C)C(=O)N[C@@H](CCCCNC(=O)COCCOCCNC(=O)COCCOCCNC(=O)CC[C@H](NC(=O)CCCCCCCCCCCCCCC(=O)O)C(=O)O)C(=O)N[C@@H](CC(=O)O)C(=O)N[C@@H](Cc1ccccc1)C(=O)N[C@H](C(=O)N[C@@H](CCC(N)=O)C(=O)N[C@@H](Cc1c[nH]c2ccccc12)C(=O)N[C@@H](CC(C)C)C(=O)N[C@@H](CCS(C)(=O)=O)C(=O)N[C@@H](CC(=O)O)C(=O)N[C@H](C(N)=O)[C@@H](C)O)C(C)C) [SEQ ID NO: 19]”: the “change in body weight over eight days” value in data set [1] (single dose at 20 nmol/kg or 60 nmol/kg at day zero, compared to liraglutide and semaglutide (FIG. 3A)) was “more pronounced and sustained change in body weight”. Also, the “change in body weight over four days” value in data set [1] (single sc dose at day zero, compared to liraglutide and semaglutide (FIG. 1A)) is “more pronounced and sustained change in body weight”. In data set [2] (single dose at 20 nmol/kg or 60 nmol/kg at day zero, compared to liraglutide and semaglutide (FIG. 3B)), the “change in food intake over eight days” value is reported as “comparable to liraglutide or semiglutide in reducing food intake”. Also, the “change in food intake over four days” value in data set [2] (single sc dose at day zero, compared to liraglutide and semaglutide (FIG. 1B)) was “more sustained reduction in food intake”. Besides, the “blood glucose lowering effect over four days” value in data set [3] was “greater reduction in blood glucose”. Also, in data set [4], the “PK over three days” value is “more prolonged PK”.
